In BigSolDB 2.1:

Compound: Cl.c1ccc2c(CC3=NCCN3)cccc2c1
- solubility (mole fraction) (in 2-methoxyethanol, 278.15 K): 0.0132
- solubility (mole fraction) (in 2-methoxyethanol, 283.15 K): 0.0157
- solubility (mole fraction) (in 2-methoxyethanol, 288.15 K): 0.0184
- solubility (mole fraction) (in 2-methoxyethanol, 293.15 K): 0.0214
- solubility (mole fraction) (in 2-methoxyethanol, 298.15 K): 0.0246
- solubility (mole fraction) (in 2-methoxyethanol, 303.15 K): 0.0287
- solubility (mole fraction) (in 2-methoxyethanol, 308.15 K): 0.0329
- solubility (mole fraction) (in 2-methoxyethanol, 313.15 K): 0.0366
- solubility (mole fraction) (in 2-methoxyethanol, 318.15 K): 0.0419
- solubility (mole fraction) (in 2-methoxyethanol, 323.15 K): 0.0476
- solubility (mole fraction) (in ethanol, 278.15 K): 0.00313
- solubility (mole fraction) (in ethanol, 283.15 K): 0.00386
- solubility (mole fraction) (in ethanol, 288.15 K): 0.00457
- solubility (mole fraction) (in ethanol, 293.15 K): 0.00545
- solubility (mole fraction) (in ethanol, 298.15 K): 0.00639
- solubility (mole fraction) (in ethanol, 303.15 K): 0.0076
- solubility (mole fraction) (in ethanol, 308.15 K): 0.00893
- solubility (mole fraction) (in ethanol, 313.15 K): 0.0104
- solubility (mole fraction) (in ethanol, 318.15 K): 0.012
- solubility (mole fraction) (in ethanol, 323.15 K): 0.014
- solubility (mole fraction) (in isopropanol, 278.15 K): 0.000605
- solubility (mole fraction) (in isopropanol, 283.15 K): 0.000784
- solubility (mole fraction) (in isopropanol, 288.15 K): 0.00101
- solubility (mole fraction) (in isopropanol, 293.15 K): 0.0013
- solubility (mole fraction) (in isopropanol, 298.15 K): 0.00169
- solubility (mole fraction) (in isopropanol, 303.15 K): 0.00202
- solubility (mole fraction) (in isopropanol, 308.15 K): 0.00249
- solubility (mole fraction) (in isopropanol, 313.15 K): 0.00309
- solubility (mole fraction) (in isopropanol, 318.15 K): 0.00377
- solubility (mole fraction) (in isopropanol, 323.15 K): 0.00462
- solubility (mole fraction) (in methanol, 278.15 K): 0.011
- solubility (mole fraction) (in methanol, 283.15 K): 0.0137
- solubility (mole fraction) (in methanol, 288.15 K): 0.0164
- solubility (mole fraction) (in methanol, 293.15 K): 0.0198
- solubility (mole fraction) (in methanol, 298.15 K): 0.0243
- solubility (mole fraction) (in methanol, 303.15 K): 0.0287
- solubility (mole fraction) (in methanol, 308.15 K): 0.0337
- solubility (mole fraction) (in methanol, 313.15 K): 0.04
- solubility (mole fraction) (in methanol, 318.15 K): 0.0462
- solubility (mole fraction) (in methanol, 323.15 K): 0.0527
